Measurements as given in a melting point compilation (Tetko et al.; mined from patent text by program, amines drawn as free bases though some values may be those of a salt).

| Structure (SMILES) | melting point [°C] |
| --- | --- |
| Nc1cccc(-c2nn(Cc3oc4ccccc4c(=O)c3-c3ccccc3)c3ncnc(N)c23)c1 | 157 to 159 |
| COCCOc1cc2c(cc1-c1ccccc1F)NC(=O)CC(c1cccc(C#N)c1)=N2 | 211 to 213 |
| Oc1cc2c(cc1O)OCC(c1ccc3c(c1)OCO3)C2 (stereo not drawn) | 163 to 164 |
| CCOC(=O)/C=C(/c1ccc(OCC)cc1)c1cc(Cl)cc(Cl)c1 | 104 to 106 |
| COc1nc(C(F)(F)F)cc(=O)n1-c1cc(C(=O)N(C)OC)c(Cl)cc1F | 119 |
| O=C(N[C@H](Cc1ccccc1C(F)(F)F)[C@@H](O)c1ccc(F)cc1)c1ccc(F)c2ccccc12 (racemic) | 200 to 201 |
| COc1cc2c(cc1Br)-c1cc3c(n1CC2)C(=O)N(C(C)(C)C)CCCC3 | 127 to 129 |
| CCOC(=O)C(C)(C)Oc1cccc(Cc2ccc(C(F)(F)F)cc2)c1 | 50 |
| COc1nc(C)nc(NC(=O)NS(=O)(=O)c2ccccc2-n2nnnc2C)n1 | 207 to 209 |
| CC(C)(C)NC(=O)c1nn(-c2ccc(C(C)(C)C)cc2)c2c1C1CCC2C1 (stereo not drawn) | 148 to 150 |
| Nc1cc2oc(=O)[nH]c2cc1[N+](=O)[O-] | 198 |
| O=C(O)C1=Cc2ccc(Cl)cc2OC1C(F)(F)F (stereo not drawn) | 175 to 178 |
| CCOC(=O)c1cnc(-c2cc3cccc(N)c3n2COC)s1 | 188 to 190 |
| O=C(C=CCc1ccccc1)NCCCCCC(=O)NO | 126 to 128 |
| Fc1ccccc1C1=NCc2cnc(Cl)nc2-c2ccc(Cl)cc21 | 157 to 160 |
| CC1Cc2cc3c(cc2C(c2ccc([N+](=O)[O-])cc2)=NN1c1nccs1)OCO3 (stereo not drawn) | 145 to 150 |
| COC(=O)C1CN(C(=O)c2cc(OC)c(OC)c(OC)c2)CCN1 (stereo not drawn) | 113 to 114 |
| OCC1(c2c[nH]cn2)Cc2ccccc2C1 | 181 to 184 |
| CNC(=O)c1cc2c(OC[C@@H](O)CN3CCC(c4ccc5ccccc5c4)CC3)cccc2n1C | 180 to 183 |
| Clc1ccc(Oc2cncc(Cl)n2)cc1 | 92 to 93 |
| CC(C)n1c(C=O)c(-c2ccc(F)cc2)c(-c2ccc(F)cc2)c1C(=O)NCc1ccc(S(C)(=O)=O)cc1 | 203 to 204 |
| COc1ccc2[nH]c3c(c2c1)CCSc1ccccc1-3 | 151 to 154 |
| CC(C)S(=O)(=O)NC(=O)c1cccc(N)c1 | 190 to 193 |
| O=C(c1cc(-c2ccccc2)c(=O)n2c1-c1ccccc1C2)N1CCSCC1 | 266 to 268 |
| COC(=O)[C@@H]1[C@@H](C(=O)O)[C@H]2C=C[C@@H]1C2 | 78 to 79 |

| Structure (SMILES) | melting point [°C] |
| --- | --- |
| COc1nc2cc(F)cc(C)c2nc1OC | 107 to 109 |
| Cn1cc(C(=O)O)c(=O)c2c3ccc(F)c(N4CCC(O)(c5cccc(C(F)(F)F)c5)CC4)c3ncc21 | 245 |
| OCc1nc(-c2ccc(Cl)cc2)co1 | 68 to 71.5 |
| Clc1ccc(Nc2nnc(Cc3ccncc3)c3c2CCCC3)cc1 | 258 to 261 |
| CCc1c(CNS(=O)(=O)c2cccc(Cl)c2)nn(-c2ccc(Cl)cc2Cl)c1-c1ccc(Br)cc1 | 169 |
| CC(C)C1CCN(Cc2ccc(COc3cccc4c3C(=O)N(C3CCC(=O)NC3=O)C4=O)cc2)CC1 (stereo not drawn) | 220 to 222 |
| O=C(c1ccccc1)c1ccc(CP(=O)(O)O)cc1 | 172 to 175 |
| CC(=NO)c1ncc(C)nc1C | 85 to 89 |
| COc1c(C)c(N2CCN(c3ccc(C(F)(F)F)cc3)CC2)c(C)c2c1OC(C)C2 (stereo not drawn) | 142 to 145 |
| C[C@@H](n1cnc2c(cnn2-c2ccc(F)cc2)c1=O)[C@](O)(Cn1cncn1)c1ccc(F)cc1F | 217 to 218 |
| CCN1c2ncc(CCc3ccncc3)cc2C(=O)N(C)c2ccc(Cl)nc21 | 158 to 159 |
| O=C1CCc2ccc(OCCCCBr)cc2N1 | 106 to 109 |
| C[C@@H]1CN(c2nccc(Oc3ccc(NC(=O)c4cc(F)cc(N5CCOCC5)c4)c4ccccc34)n2)C[C@H](C)O1 | 118 to 120 |
| CCOC(=O)c1c(O)c(Br)c(Br)n1-c1ccccc1 | 144 to 145 |
| Cc1cc2c(c(S(N)(=O)=O)n1)C(=O)OC2 | 211 to 213 |
| C[Si](C)(CCCc1nnc(N)nc1O)c1ccccc1 | 250 to 252 |
| CC(=O)c1cccc(-c2ccc(OC[C@H](O)CCc3cccnc3)cc2)c1 | 58 to 60 |
| COc1cc(C(=O)O)c(O)c2c1C(C)(C)CCC2(C)C | 213 |
| CCOc1ccc2c(c1)C(C)(c1ccccc1Cl)C(=O)N2S(=O)(=O)c1ccc(C(=O)NC(C)(C)C)cc1 (stereo not drawn) | 157 |
| CC1(C)Oc2ccc(S(=O)(=O)C(F)(F)F)cc2[C@@H](N2Cc3ccccc3C2=O)[C@@H]1O (relative stereo) | 279 to 281 |
| CCCc1cc(OCc2ccc(C(=O)O)cc2)c2ccccc2n1 | 225 to 227 |
| CC(C)[Si](C(C)C)(C(C)C)N1C=C2C=C(C=O)OCC3=C2C(=C1)CC3N(C)C (stereo not drawn) | 104 to 106 |
| CNS(=O)(=O)CC(=O)c1cc(OC)ccc1N | 117 to 118 |
| CC(C)(C)OC(=O)N(CCN)CCN(CCN)C(=O)OC(C)(C)C | 81 to 82 |
| Nc1nc2[nH]c(CCCCc3ccc(C(=O)N[C@@H](CCC(=O)O)C(=O)O)o3)cc2c(=O)[nH]1 | 174 to 175 |

| Structure (SMILES) | melting point [°C] |
| --- | --- |
| O=C(O)C1=Cc2cc(CO)ccc2OC1CC(F)(F)F (stereo not drawn) | 178 to 181 |
| CCSc1c(C)nn(-c2c(Cl)cc(C(F)(F)F)cc2Cl)c1N | 117 |
| Cc1ccc(C(=S)CCCCCC#N)cc1 | 49.5 to 51 |
| Cc1nc(C)c(Cl)c(NCc2ccc(Oc3ccc4ncc([N+](=O)[O-])n4n3)c(Cl)n2)n1 | 184 to 186 |
| COC(=O)c1cc(Cl)cc(OC)c1O | 105 |
| O=C(ON1C(=O)CCC1=O)c1ccccc1 | 178 |
| ClCc1coc(-c2sccc2Cl)n1 | 84 to 85 |
| COC(=O)c1ccc(Cc2c(C)[nH]c(C)cc2=O)cc1 | 226 to 228 |
| CCCCCCCCCCCC1Cc2cc(C(=O)O)ccc2N1C (racemic) | 102 to 104 |
| COc1ccc(Br)cc1OCc1ccccc1 | 70 to 71 |
| CN(C)CCCOc1ccc(-c2nnc(CSCCOc3ccccc3)n2-c2ccccc2)cc1 | 120 to 123 |
| CSc1ccc(C(N)=S)cc1 | 176 to 178 |
| O=C(CCC(=O)N1CCC[C@H]1C(=O)O)c1cccs1 | 100 to 102 |
| COc1ccc(Cl)cc1C(=O)NC1COc2cc(C)ccc2C1 (stereo not drawn) | 97 |
| O=c1ccc(-c2ccc(OCC(O)CN3CCCCC3)cc2)n[nH]1 (stereo not drawn) | 185 |
| O=C1NC(=O)C(Cc2ccc(OCC34CC5CC(CC(C5)C3)C4)cc2)S1 (stereo not drawn) | 188 to 191 |
| N#Cc1cc(-c2ccccc2)[nH]c1Sc1ccc2ccccc2c1 | 93 to 94.4 |
| CC(CC(=O)O)c1ccc(O)cc1O (stereo not drawn) | 92 to 94 |
| CCCCCCCCCCOc1cc(OCCCCCCCCCC)cc(C(=O)C(=O)OC)c1 | 49 to 50 |
| Cc1ccnc2c1C(=O)CC(c1cc(Cl)sc1Cl)C2 (stereo not drawn) | 130 to 131 |
| O=C(O)Cn1c(-c2cc(Cl)ccn2)nc2cccnc21 | 218 to 220 |
| CCOC(=O)C(=O)c1csc(NC(=O)Nc2ccc(OC)cc2)n1 | 193 to 196 |
| CCCC(O)c1cc(C)cc(C)c1C=CC1OCC(C)(C)CO1 (stereo not drawn) | 56 to 59 |
